The test system of assay [1] is Wnt-responsive Sp5-Luc reporter in SW480 colon carcinoma cells. The assay can be described thus: Wnt activity screening assay (Sp5-Luc reporter). The note with it: Homo sapiens. Type of assay: cell-based. The text has this:
The screening assay for Wnt activity is described as follows. Reporter cell lines can be generated by stably transducing cancer cell lines (e.g., colon cancer) or primary cells (e.g., IEC-6 intestinal cells) with a lentiviral construct that includes a Wnt-responsive promoter driving expression of the firefly luciferase gene.
SW480 colon carcinoma cells were transduced with a lentiviral vector expressing luciferase with a human Sp5 promoter consisting of a sequence of eight TCF/LEF binding sites. […] These stably transduced SW480 cells were expanded in cell culture and used for all further screening activities. […] For Sp5-Luc reporter gene assays, the cells were plated at 4,000 cells/well in 384-well plates with a DMEM medium containing 1% fetal bovine serum, and 1% Penicillin-Streptomycin and incubated for 36 to 48 hours at 37° C. and 5% CO2. Following incubation, 15 μL of BriteLite Plus luminescence reagent (Perkin Elmer) was added to each well of the 384-well assay plates. The plates were placed on an orbital shaker for 2 min and then luminescence was quantified using the Envision (Perkin Elmer) plate reader.

In assay [2] the test system is SW480 colorectal cancer cells. Description: Gene expression qRT-PCR in SW480 cells. Type of assay: cell-based. The note with it: Homo sapiens. The procedure:
SW480 colorectal cancer cells were plated at 1×10^4 cells per well into 96-well plates (Olympus). Compounds were diluted in cell culture media and added to the cells at a final concentration of 3 μM. Cells were treated with vehicle (DMSO) and compounds for 24 hours. N=3 biological replicates per conditions.
Following treatment, cells were lysed, and cDNA was generated using the Fastlane Cell cDNA Kit (Qiagen).
384-well PCR plates with pre-spotted primers for CLK1, CLK2, CLK3, DVL2, LRP5, SRSF1, SRSF3, SRSF4, SRSF5, TCF7, TCF7L2 were ordered from Bio-Rad. The generated cDNA, along with a SYBR Green qRT-PCR master mix (SsoAdvanced™ Universal SYBR® Green Supermix, Bio-Rad) was added to the PCR plates.
qRT-PCR was performed on the plates using a CFX384 Touch™ Real-Time PCR Detection System (Bio-Rad) with the manufacturer's recommended thermal cycling conditions.
Data from the qRT-PCR assay was normalized to the GAPDH and HPRT1 housekeeping genes and set gene expression fold change was set relative to vehicle-treated cells using the ΔΔCt analysis method.
Background: In qPCR the cycle at which signal appears reflects the starting amount.

In the next assay the target is CLK3 (Homo sapiens, UniProt P49761). Description: CLK3 kinase activity assay (Z-lyte, Ser/Thr 18 peptide).
Another assay has as its target T1, CLK2 (Homo sapiens, UniProt P49760).
T1 construct: purchased Thermo Fisher (Life Technologies), Z'-LYTE Kinase Assay Kits
The assay can be described thus: CLK2 kinase activity assay (Z-lyte, Ser/Thr 6 peptide). Type of assay: biochemical. Here is the method:
All reactions were performed in duplicate.

Setting [3] is: SW480 Sp5-Luc reporter, 36 to 48 hours, read-out: EC50.
Where [4] appears, read: SW480, 3 μM, 24 hours, relative to DMSO, read-out: gene expression fold change CLK1.
The mark [5] stands for this setting: SW480, 3 μM, 24 hours, relative to DMSO, read-out: gene expression fold change CLK2.
Setting [6] is: SW480, 3 μM, 24 hours, relative to DMSO, read-out: gene expression fold change CLK3.
[7] abbreviates: SW480, 3 μM, 24 hours, relative to DMSO, read-out: gene expression fold change DVL2.
[8] abbreviates: SW480, 3 μM, 24 hours, relative to DMSO, read-out: gene expression fold change LRP5.
Setting [9] is: SW480, 3 μM, 24 hours, relative to DMSO, read-out: gene expression fold change SRSF1.
The mark [10] stands for this setting: SW480, 3 μM, 24 hours, relative to DMSO, read-out: gene expression fold change SRSF3.
Setting [11] is: SW480, 3 μM, 24 hours, relative to DMSO, read-out: gene expression fold change SRSF4.
[12] abbreviates: SW480, 3 μM, 24 hours, relative to DMSO, read-out: gene expression fold change SRSF5.
Setting [13] is: SW480, 3 μM, 24 hours, relative to DMSO, read-out: gene expression fold change TCF7.
Setting [14] is: SW480, 3 μM, 24 hours, relative to DMSO, read-out: gene expression fold change TCF7L2.
Where [15] appears, read: recombinant CLK2 kinase, ATP 60 μM, read-out: EC50.

Like-named read-outs stand apart in the source and are kept apart here.

T1 sequence (P49760 whole entry): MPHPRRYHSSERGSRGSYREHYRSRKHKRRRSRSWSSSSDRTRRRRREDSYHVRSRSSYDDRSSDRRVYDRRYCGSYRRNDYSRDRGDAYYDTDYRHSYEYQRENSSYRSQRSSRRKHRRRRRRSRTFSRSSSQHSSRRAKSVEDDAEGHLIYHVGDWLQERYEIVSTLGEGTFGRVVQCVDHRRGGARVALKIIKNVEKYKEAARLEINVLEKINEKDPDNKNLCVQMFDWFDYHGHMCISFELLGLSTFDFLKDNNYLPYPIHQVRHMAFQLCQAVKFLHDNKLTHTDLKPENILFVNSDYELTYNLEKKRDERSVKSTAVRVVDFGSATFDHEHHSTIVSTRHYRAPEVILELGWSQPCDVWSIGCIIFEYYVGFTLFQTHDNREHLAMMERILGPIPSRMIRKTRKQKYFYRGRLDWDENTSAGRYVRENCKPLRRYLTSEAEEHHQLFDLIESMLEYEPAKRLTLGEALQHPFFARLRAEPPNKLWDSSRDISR
Sequence of CLK3 (P49761 whole entry): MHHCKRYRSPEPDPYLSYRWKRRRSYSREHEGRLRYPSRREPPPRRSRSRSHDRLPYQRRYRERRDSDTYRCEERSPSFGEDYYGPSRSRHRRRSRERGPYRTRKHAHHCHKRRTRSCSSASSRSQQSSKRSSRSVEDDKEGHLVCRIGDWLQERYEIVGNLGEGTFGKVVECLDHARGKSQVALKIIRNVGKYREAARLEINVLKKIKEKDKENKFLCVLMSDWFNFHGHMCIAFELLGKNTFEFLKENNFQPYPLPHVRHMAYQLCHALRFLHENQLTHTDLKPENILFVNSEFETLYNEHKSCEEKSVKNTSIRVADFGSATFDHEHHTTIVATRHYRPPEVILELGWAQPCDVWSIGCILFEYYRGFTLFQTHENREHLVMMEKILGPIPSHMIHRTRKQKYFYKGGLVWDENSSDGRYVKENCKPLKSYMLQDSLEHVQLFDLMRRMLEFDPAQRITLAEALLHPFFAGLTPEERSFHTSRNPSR

In general, EC50 refers to the concentration that produces a half-maximal response. Regarding `Cc1n[nH]c2ccc(-c3cncc(OC[C@H](N)Cc4ccccc4)n3)cc12` [Compound 2], the EC50 in assay [1] (setting [3]) was determined as 253 nM. The fold induction at 3 µM came to 0.01 in assay [2] (setting [4]); 0.05 in assay [2] (setting [5]); 0.02 in assay [2] (setting [6]); 0.05 in assay [2] (setting [7]); 0.07 in assay [2] (setting [8]); 0.13 in assay [2] (setting [9]). Further, the fold induction at 3 µM in assay [2] (setting [10]) amounted to 0.05; in assay [2] (setting [11]), 0.02; in assay [2] (setting [12]), 0.14; in assay [2] (setting [13]), 0.32; in assay [2] (setting [14]), 0.13.

Consider `Cc1n[nH]c2ccc(-c3cncc(OC[C@@H](N)Cc4ccccc4)c3)cc12` [Compound 3], for which, in assay [1] (setting [3]), the 50% effective concentration (EC50) was 356 nM.

Take `CN(C)CCN(C)c1ccc(NC(=O)c2n[nH]c3ccc(-c4cncc(CN5CCCCC5)c4)cc23)cn1` [Compound 6]: the concentration giving a half-maximal response (EC50) in assay [1] (setting [3]) was 65 nM; on CLK3, 17 nM. The fold induction at 3 µM in assay [2] (setting [4]) was 0.04; in assay [2] (setting [5]) it was 0.06; in assay [2] (setting [6]), 0.03; in assay [2] (setting [7]) it was 0.06; in assay [2] (setting [8]), 0.05; in assay [2] (setting [9]), 0.1. The fold induction at 3 µM in assay [2] (setting [10]) was determined as 0.04; in assay [2] (setting [11]), 0.01; in assay [2] (setting [12]), 0.1; in assay [2] (setting [13]), 0.31; in assay [2] (setting [14]), 0.07.

As for `Cc1ccc(-c2cncc3[nH]c(-c4n[nH]c5ccc(-c6cncc(N)c6)nc45)nc23)s1` [Compound 7], the concentration for a half-maximal effect (EC50) in assay [1] (setting [3]) was 41 nM; on CLK2 (setting [15]) it was 1 nM; at CLK3, 10 nM.

As to `Cc1ncc(-c2ccc3[nH]nc(-c4nc5c(-c6cc(F)cc(NCCN(C)C)c6)ccnc5[nH]4)c3n2)n1C` [Compound 8], the EC50 in assay [1] (setting [3]) came out at 623 nM; on CLK2 (setting [15]) it was 1 nM; on CLK3, 22 nM.

`CNc1nc(NCc2ncccn2)c2c(-c3ccc4ncccc4c3)c[nH]c2n1` [Compound 9] yielded a concentration for a half-maximal effect (EC50) in assay [1] (SW480) of 92 nM. Further, the fold induction at 3 µM came to 0.16 in assay [2] (SW480, 24 h, read-out: gene expression fold change CLK1); 0.06 in assay [2] (SW480, 24 h, read-out: gene expression fold change CLK2); 0.51 in assay [2] (SW480, 24 h, read-out: gene expression fold change CLK3); 0.21 in assay [2] (SW480, 24 h, read-out: gene expression fold change DVL2); 0.18 in assay [2] (SW480, 24 h, read-out: gene expression fold change LRP5); 1.91 in assay [2] (SW480, 24 h, read-out: gene expression fold change SRSF1). Moreover, the fold induction at 3 µM was 0.62 in assay [2] (SW480, 24 h, read-out: gene expression fold change SRSF3); 0.62 in assay [2] (SW480, 24 h, read-out: gene expression fold change SRSF4); 0.56 in assay [2] (SW480, 24 h, read-out: gene expression fold change SRSF5); 0.2 in assay [2] (SW480, 24 h, read-out: gene expression fold change TCF7); 0.29 in assay [2] (SW480, 24 h, read-out: gene expression fold change TCF7L2).

In the case of `Cn1ncc(-c2ccc3cnc(NC(=O)c4ccnc(N5CCOCC5)c4)cc3c2)c1CN1CCOCC1` [Compound 13], the EC50 at CLK2 (setting [15]) stood at 1 nM; at CLK3, 10 nM.

Regarding `Cn1cncc1-c1ccc2cnc(NC(=O)c3ccc4c(c3)CNC4)cc2c1` [Compound 15], the EC50 on CLK2 (setting [15]) worked out at 1 nM; at CLK3, 30 nM.

Regarding `Cc1ncc(C(=O)Nc2cc3cc(-c4cnc(C)n4C)ccc3cn2)s1` [Compound 16], the values for the EC50 (in assay [1] (setting [3]); on CLK2 (setting [15])) were 165 nM and 1 nM, respectively. The fold induction at 3 µM in assay [2] (setting [4]) was found to be 0.22; in assay [2] (setting [5]), 0.06; in assay [2] (setting [6]), 0.59; in assay [2] (setting [7]), 0.18; in assay [2] (setting [8]) it was 0.17; in assay [2] (setting [9]) it was 1.92. The fold induction at 3 µM in assay [2] (setting [10]) is 0.61; in assay [2] (setting [11]), 0.66; in assay [2] (setting [12]), 0.54; in assay [2] (setting [13]), 0.21; in assay [2] (setting [14]), 0.14.

As to `CC(C)Oc1ccc(C(=O)Nc2cc3cc(-c4cnc5n4CCNC5)ccc3cn2)cc1` [Compound 17], the results for the concentration giving a half-maximal response (EC50) on CLK2 (setting [15]) and on CLK3 were 2 nM and 161 nM, respectively.

For `CN1CCN(c2ccc(C(=O)Nc3cc4cc(-c5nncs5)ccc4cn3)cn2)CC1` [Compound 18], the EC50 on CLK2 (setting [15]) stood at 2 nM; at CLK3 it was 54 nM.

On to `Cc1nnc(-c2ccc3cnc(NC(=O)c4ccnc(SC5CCN(C)CC5)c4)cc3c2)s1` [Compound 19], for which the concentration for a half-maximal effect (EC50) stood at 2 nM on CLK2 (setting [15]) and 14 nM on CLK3.

Turning to `O=C(Nc1cc2cc(-c3cncc(NCC4(F)CNC4)n3)ccc2cn1)C1CC1` [Compound 21], the EC50 in assay [1] (setting [3]) turned out to be 151 nM; on CLK2 (setting [15]), 1 nM. Moreover, the fold induction at 3 µM in assay [2] (setting [4]) came out at 0.02; in assay [2] (setting [5]), 0.03; in assay [2] (setting [6]) it was 0.05; in assay [2] (setting [7]), 0.15; in assay [2] (setting [8]) it was 0.07; in assay [2] (setting [9]) it was 0.22. For the same compound, the fold induction at 3 µM amounted to 0.07 in assay [2] (setting [10]); 0.03 in assay [2] (setting [11]); 0.16 in assay [2] (setting [12]); 0.48 in assay [2] (setting [13]); 0.1 in assay [2] (setting [14]).

On to `CN1CCC(n2cc(C(=O)Nc3cc4cc(-c5cncc6[nH]ccc56)ccc4cn3)cn2)CC1` [Compound 23], for which the EC50 in assay [1] (setting [3]) was determined as 26 nM; on CLK3 it was 9 nM. In addition, the fold induction at 3 µM in assay [2] (setting [4]) is 0.02; in assay [2] (setting [5]), 0.03; in assay [2] (setting [6]) it was 0.02; in assay [2] (setting [7]), 0.11; in assay [2] (setting [8]), 0.04; in assay [2] (setting [9]) it was 0.3. Moreover, the fold induction at 3 µM in assay [2] (setting [10]) is 0.09; in assay [2] (setting [11]) it was 0.02; in assay [2] (setting [12]), 0.24; in assay [2] (setting [13]) it was 0.25; in assay [2] (setting [14]), 0.12.

Consider `NC(=O)c1ccc(NC(=O)c2n[nH]c3ccc(-c4cncc(CN5CCCCC5)c4)cc23)cn1` [Compound 30], for which the EC50 in assay [1] (setting [3]) was 13 nM.

`CN1CCN(c2ccc(NC(=O)c3n[nH]c4ccc(-c5cncc(CN6CCC(F)(F)C6)c5)cc34)cn2)CC1` [Compound 31]: the EC50 in assay [1] (setting [3]) stood at 4 nM.

Take `Nc1ncc(NC(=O)c2n[nH]c3ccc(-c4cncc(CN5CCCCC5)c4)cc23)cn1` [Compound 33]: in assay [1] (setting [3]), the 50% effective concentration (EC50) came to 30 nM.

With `CN(C)C(=O)Nc1cncc(-c2ccc3[nH]nc(C(=O)Nc4cccnc4)c3c2)c1` [Compound 34], the 50% effective concentration (EC50) in assay [1] (setting [3]) worked out at 176 nM.

For `CN1CCC(Oc2cc(NC(=O)c3n[nH]c4cc(F)c(-c5cnn(C)c5)cc34)ccn2)CC1` [Compound 35], the EC50 at CLK2 (setting [15]) is 1 nM; at CLK3, 20 nM.

On to `CN1CCN(Cc2ccc(NC(=O)c3n[nH]c4ccc(-c5cccnc5)cc34)cn2)CC1` [Compound 36], for which the EC50 in assay [1] (setting [3]) amounted to 37 nM.

As for `COc1ccc(NC(=O)c2n[nH]c3ccc(-c4cncc(CO)c4)cc23)cn1` [Compound 37], the EC50 in assay [1] (setting [3]) is 97 nM.

As for `CN1CCN(c2nccc3[nH]c(-c4n[nH]c5cc(F)c(-c6cnn(C)c6)cc45)nc23)CC1` [Compound 42], the EC50 in assay [1] (setting [3]) was 86 nM.

On to `O=C(Nc1cc2cc(-c3cnn4c3CN(CCF)CC4)ccc2cn1)c1ccnc(OC2CNC2)c1` [Compound 79], for which the EC50 at CLK2 turned out to be 4.4 nM; at CLK3 it was 44.3 nM.

These data come from US20220062240A1, “METHODS OF TREATING CANCER USING A CLK INHIBITOR” (BioSplice Therapeutics, Inc., priority 2018, published 2022).
